Results as given in EP3807270B1, “NOVEL HETEROARYL HETEROCYCLYL COMPOUNDS FOR THE TREATMENT OF AUTOIMMUNE DISEASE” (F. Hoffmann-La Roche AG, priority 2018, dated 2019).
pIC50: −log10 of the molar value. Values belong to the compound of their own block, whether it stands above or below them.

Key:
[1] = target: T1, human TLR8 (Homo sapiens, UniProt Q9NR97); assay: HEK293-Blue-hTLR-8 cells assay (SEAP reporter, R848 stimulation); type: cell-based; conditions: HEK293-Blue-hTLR8 cells, R848, 20 hrs; read-out: HEK/hTLR8 IC50
T1 construct: host or cells: HEK293 (HEK-Blue)
T1 sequence (Q9NR97 27-1041): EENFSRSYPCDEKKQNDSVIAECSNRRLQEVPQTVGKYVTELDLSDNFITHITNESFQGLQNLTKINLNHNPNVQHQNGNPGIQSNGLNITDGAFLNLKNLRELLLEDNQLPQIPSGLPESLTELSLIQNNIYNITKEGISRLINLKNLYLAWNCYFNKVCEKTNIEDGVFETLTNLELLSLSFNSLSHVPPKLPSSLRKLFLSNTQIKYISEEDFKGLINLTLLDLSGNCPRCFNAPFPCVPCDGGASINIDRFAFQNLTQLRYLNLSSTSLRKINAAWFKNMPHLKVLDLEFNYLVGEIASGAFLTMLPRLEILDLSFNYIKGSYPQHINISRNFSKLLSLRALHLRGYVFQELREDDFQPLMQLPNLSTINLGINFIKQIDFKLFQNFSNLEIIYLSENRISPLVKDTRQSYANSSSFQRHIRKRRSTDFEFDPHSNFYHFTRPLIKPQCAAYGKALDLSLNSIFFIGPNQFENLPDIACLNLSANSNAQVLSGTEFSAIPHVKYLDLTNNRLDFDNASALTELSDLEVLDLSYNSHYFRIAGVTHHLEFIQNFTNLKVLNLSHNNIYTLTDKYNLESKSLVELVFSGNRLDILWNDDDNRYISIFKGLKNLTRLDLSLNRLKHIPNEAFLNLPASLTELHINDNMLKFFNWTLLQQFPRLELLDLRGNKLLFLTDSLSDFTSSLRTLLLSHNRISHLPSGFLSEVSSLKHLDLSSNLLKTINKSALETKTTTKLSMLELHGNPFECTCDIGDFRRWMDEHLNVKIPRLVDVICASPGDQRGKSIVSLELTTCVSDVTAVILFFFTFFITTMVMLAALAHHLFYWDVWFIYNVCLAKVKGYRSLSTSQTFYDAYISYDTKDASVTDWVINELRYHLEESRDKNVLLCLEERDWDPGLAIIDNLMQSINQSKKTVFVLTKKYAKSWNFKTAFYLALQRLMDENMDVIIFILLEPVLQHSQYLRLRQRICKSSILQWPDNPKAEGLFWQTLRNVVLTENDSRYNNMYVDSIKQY
Outline: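 HEK293-Blue-hTLR8 cells (NF-κB/AP-1-driven SEAP) in DMEM/10% FBS were treated with serially diluted compound (1% DMSO final) plus R848 for 20 hrs at 37 °C. Supernatant SEAP was measured with QUANTI-Blue after 2 hrs at 37 °C, absorbance 620-655 nm; antagonism seen as reduced reporter.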

[2] = target: T2, hERG channel (Homo sapiens, UniProt Q12809); assay: hERG channel inhibition assay (patch-clamp, CHO hERG cells); type: cell-based; conditions: for pIC50 / IC20: CHO hERG cells, whole-cell patch-clamp; for IC20: human, CHO cells stably expressing hERG; for hERG IC20 / TLR8 IC50 / hERG IC20 / TLR7 IC50 / hERG IC20 / TLR9 IC50: safety ratio; for hERG IC20 / TLR7 IC50: TLR7 IC50 of ER compounds from Table 1; for hERG IC20 / TLR9 IC50: TLR9 IC50 of ER compounds from Table 1
T2 construct: expressed in transfected cells; host or cells: CHO (Chinese hamster ovary)
Outline: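 Whole-cell voltage-clamp on CHO cells stably expressing human hERG, IKhERG evoked at 0.1 Hz. Compound applied at rising concentrations, each held 3-10 min to steady state; current amplitude and kinetics expressed against control taken as 100%.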

T2 sequence (Q12809 whole entry): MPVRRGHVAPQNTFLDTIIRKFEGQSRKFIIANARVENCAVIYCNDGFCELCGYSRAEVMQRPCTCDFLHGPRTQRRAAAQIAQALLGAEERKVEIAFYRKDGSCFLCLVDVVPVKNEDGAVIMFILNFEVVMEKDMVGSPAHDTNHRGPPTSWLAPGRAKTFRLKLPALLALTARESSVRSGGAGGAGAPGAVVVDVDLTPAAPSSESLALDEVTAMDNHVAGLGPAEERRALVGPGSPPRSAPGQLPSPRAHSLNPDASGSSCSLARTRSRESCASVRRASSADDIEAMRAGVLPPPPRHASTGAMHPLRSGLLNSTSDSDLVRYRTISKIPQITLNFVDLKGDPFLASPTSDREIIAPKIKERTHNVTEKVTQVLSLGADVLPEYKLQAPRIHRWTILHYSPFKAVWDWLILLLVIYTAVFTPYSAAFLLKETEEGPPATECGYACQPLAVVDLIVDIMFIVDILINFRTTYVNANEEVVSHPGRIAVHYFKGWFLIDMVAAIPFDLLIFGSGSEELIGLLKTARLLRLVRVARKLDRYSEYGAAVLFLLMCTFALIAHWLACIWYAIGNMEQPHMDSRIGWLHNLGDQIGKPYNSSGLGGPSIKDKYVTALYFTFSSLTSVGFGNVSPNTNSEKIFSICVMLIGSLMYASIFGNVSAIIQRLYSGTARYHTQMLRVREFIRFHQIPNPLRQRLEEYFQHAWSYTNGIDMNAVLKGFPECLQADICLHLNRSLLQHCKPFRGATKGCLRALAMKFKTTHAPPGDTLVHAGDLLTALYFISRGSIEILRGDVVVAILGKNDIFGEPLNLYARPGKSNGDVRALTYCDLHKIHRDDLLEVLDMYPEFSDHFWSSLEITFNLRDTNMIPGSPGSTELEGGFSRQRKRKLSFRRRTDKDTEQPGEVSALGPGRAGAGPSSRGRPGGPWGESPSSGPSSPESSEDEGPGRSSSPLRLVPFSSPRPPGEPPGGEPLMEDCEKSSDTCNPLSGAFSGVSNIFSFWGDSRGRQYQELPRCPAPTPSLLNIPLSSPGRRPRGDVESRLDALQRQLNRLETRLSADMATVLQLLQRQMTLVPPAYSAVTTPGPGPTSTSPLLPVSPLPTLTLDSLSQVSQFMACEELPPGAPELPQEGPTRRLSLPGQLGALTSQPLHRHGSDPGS

SMILES: C[C@@H]1CN(c2ccc(C#N)c3nccnc23)C[C@H](CN2CCN(c3cc4c(cn3)[C@@H](C)NCC4)CC2)O1 (single isomer, unassigned) [Example 86]
pIC50 [1]: 8.70

SMILES: C[C@@H]1CN(c2ccc(C#N)c3ncccc23)C[C@H](CN2CCN(c3ccc4c(c3)CNCC4)CC2)O1 [Example 9, 5-[(2R,6S)-2-methyl-6-[[4-(1,2,3,4-tetrahydroisoquinolin-7-yl)piperazin-1-yl]methyl]morpholin-4-yl]quinoline-8-carbonitrile]
pIC50 [2]: < 4.70
IC20 [2]: 6160 nM
hERG IC20 / TLR8 IC50 [2]: 410.5
hERG IC20 / TLR7 IC50 [2]: 148.0
hERG IC20 / TLR9 IC50 [2]: 80.4
pIC50 [1]: 7.82

SMILES: C[C@@H]1CN(c2ccc(C#N)c3ncccc23)C[C@H](CN2CCN(c3cnc4c(c3)CNC4)CC2)O1 [Example 10, 5-[(2S,6R)-2-[[4-(6,7-dihydro-5H-pyrrolo[3,4-b]pyridin-3-yl)piperazin-1-yl]methyl]-6-methyl-morpholin-4-yl] quinoline-8-carbonitrile]
pIC50 [2]: < 4.70
IC20 [2]: > 10000 nM
hERG IC20 / TLR8 IC50 [2]: >442.5
hERG IC20 / TLR7 IC50 [2]: >289.9
hERG IC20 / TLR9 IC50 [2]: >187.3
pIC50 [1]: 7.64

SMILES: C[C@@H]1CN(c2ccc(C#N)c3nccnc23)C[C@H](CN2CCN(c3cc4c(cn3)CCN[C@@H]4C)CC2)O1 (single isomer, unassigned) [Example 87]
pIC50 [1]: 8.70

SMILES: C[C@@H]1CN(c2ccc(C#N)c3ncccc23)C[C@H](CN2CCN(c3ccncc3)CC2)O1 [ER-888286, reference compound]
pIC50 [2]: 5.89
IC20 [2]: 348 nM
hERG IC20 / TLR7 IC50 [2]: 0.3
hERG IC20 / TLR9 IC50 [2]: 0.2

Further lines, results first:

pIC50 [1]: 8.30
SMILES: [2H]c1ccc2c(N3C[C@H](CN4CCN(c5ccc6c(n5)CN[C@H]6C)CC4)O[C@H](C)C3)ccc(C#N)c2n1 (single isomer, unassigned) [Example 99]

pIC50 [1]: 8.70
SMILES: [2H]c1nc2c(C#N)ccc(N3C[C@H](CN4CCN(c5cc6c(cn5)[C@H](C)NCC6)CC4)O[C@H](C)C3)c2nc1[2H] (single isomer, unassigned) [Example 94]

pIC50 [1]: 8.52
SMILES: [2H]c1nc2c(C#N)ccc(N3C[C@H](CN4CCN(c5cc6c(cn5)[C@@H](C)NCC6)CC4)O[C@H](C)C3)c2nc1[2H] (single isomer, unassigned) [Example 95]

pIC50 [1]: 8.52
SMILES: [2H]c1nc2c(C#N)ccc(N3C[C@H](CN4CCN(c5ccc6c(n5)CN[C@H]6C)CC4)O[C@H](C)C3)c2nc1[2H] (single isomer, unassigned) [Example 96]

pIC50 [1]: 8.40
SMILES: [2H]c1nc2c(C#N)ccc(N3C[C@H](CN4CCN(c5ccc6c(n5)CN[C@@H]6C)CC4)O[C@H](C)C3)c2nc1[2H] (single isomer, unassigned) [Example 97]

pIC50 [1]: 8.70
SMILES: C[C@@H]1CN(c2ccc(C#N)c3nccnc23)C[C@H](CN2CCN(c3cc4c(cn3)CCN[C@H]4C)CC2)O1 (single isomer, unassigned) [Example 88]

pIC50 [1]: 8.30
SMILES: [2H]c1ccc2c(N3C[C@H](CN4CCN(c5ccc6c(n5)CN[C@@H]6C)CC4)O[C@H](C)C3)ccc(C#N)c2n1 (single isomer, unassigned) [Example 98]
